Earlier results on one compound are cited in patent US7049092B1 (priority 1999, dated 2006).

pIC50: −log10 of the molar value.

The target of this series is hormone-sensitive lipase. As to conditions: read-out: IC50 (concentration producing 50% inhibition).

With `[Cl][Hg][Cl]` [HgCl2 (mercuric chloride), mercuric chloride], the pIC50 is 4.96.
